Columns and labels:
Cannabinoid receptor 1 = Cannabinoid receptor 1 (Homo sapiens, UniProt P21554); assay: Displacement of [3H]CP-55-940 from human recombinant CB1 receptor in COS cells; format: cell-based
Cannabinoid receptor 2 = Cannabinoid receptor 2 (Homo sapiens, UniProt P34972); assay: Displacement of [3H]CP-55-940 from human recombinant CB2 receptor in COS cells; format: cell-based
Chain of Cannabinoid receptor 2 (P34972 whole entry): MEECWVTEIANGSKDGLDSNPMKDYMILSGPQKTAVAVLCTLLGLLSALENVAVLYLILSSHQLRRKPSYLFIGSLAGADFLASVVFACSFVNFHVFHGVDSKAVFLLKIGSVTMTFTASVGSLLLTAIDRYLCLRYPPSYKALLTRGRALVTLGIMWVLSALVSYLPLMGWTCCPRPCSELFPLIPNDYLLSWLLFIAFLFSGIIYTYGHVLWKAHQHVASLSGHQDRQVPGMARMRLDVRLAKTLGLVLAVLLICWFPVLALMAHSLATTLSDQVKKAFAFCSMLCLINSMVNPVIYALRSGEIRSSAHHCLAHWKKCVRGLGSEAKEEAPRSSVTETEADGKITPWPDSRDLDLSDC

Chain of Cannabinoid receptor 1 (P21554 whole entry): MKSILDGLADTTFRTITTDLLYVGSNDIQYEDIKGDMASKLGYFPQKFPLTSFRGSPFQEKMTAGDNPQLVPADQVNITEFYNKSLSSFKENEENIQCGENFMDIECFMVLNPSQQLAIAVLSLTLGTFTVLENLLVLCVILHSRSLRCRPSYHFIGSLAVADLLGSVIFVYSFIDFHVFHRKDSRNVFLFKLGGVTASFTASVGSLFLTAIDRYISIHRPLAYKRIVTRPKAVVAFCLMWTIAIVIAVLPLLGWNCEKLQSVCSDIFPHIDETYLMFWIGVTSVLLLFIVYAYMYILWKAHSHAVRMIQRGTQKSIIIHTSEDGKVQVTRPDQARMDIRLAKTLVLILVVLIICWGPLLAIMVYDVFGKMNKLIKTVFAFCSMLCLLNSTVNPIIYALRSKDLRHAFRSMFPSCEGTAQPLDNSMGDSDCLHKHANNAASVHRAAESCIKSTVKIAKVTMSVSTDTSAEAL

C[C@H](CO)NC(=O)CCC/C=C\C/C=C\C/C=C\C/C=C\CCOC(=O)c1cc(I)ccc1N=[N+]=[N-]
Ki (Cannabinoid receptor 1): 570 nM | Ki (Cannabinoid receptor 2): 220 nM

Reference: ChEMBL document CHEMBL1138953 (Bioorg Med Chem Lett, 2006)
